Measured values: patent US9206136B2, “Pyrazolyl-based carboxamides I” (Grünenthal GmbH, priority 2013, dated 2015)

Columns and labels:
[1] = test system: Interleukin-2 (IL-2) production/release in Jurkat T cell line clone E6-1; experiment: Jurkat IL-2 Production Assay; assay type: cell-based; settings: Homo sapiens; Jurkat T cells stimulated with 15 μg/ml PHA for 22 hours; IL-2 in supernatant (AlphaLisa)
Procedure: Jurkat IL-2 Production Assay
The effect of compounds of the invention on Interleukin-2 (IL-2) production/release was tested in the Jurkat T cell line (ECACC) clone E6-1.
Jurkat T cells were cultured in DMEM/F12/Glutamax (Gibco) containing 10% FCS (Gibco), and maintained at 37° C., 5% CO2. Cells were split twice a week [5·10^6 (Mon-Thu) and 1·10^7 (Thu-Mon) cells/50 ml medium in T-175 ZK culture flasks, respectively].
Prior to experiment, cells were seeded on 96 well plates (Cellstar 96 Well; Cat No. 655180, Greiner bio-one) at a density of 5·10^5 cells/well in DMEM/F12/Glutamax (Gibco) containing 10% FCS (Gibco), and incubated for 60 min at 37° C., 5% CO2. Subsequently, compounds were added and cells were allowed to incubate for 30 min at 37° C., 5% CO2. Cells were then stimulated with 15 μg/ml Phyto-hemagglutinin (PHA; Sigma) for 22 hours at 37° C., 5% CO2.
Before sampling of the supernatants, cells were spun down (200*g/5 min/RT). The amount of IL-2 released into the supernatant was quantified with the human IL-2 AlphaLisa kit (Perkin Elmer) according to manufacturer's instructions. Luminescence proximity measurements were carried out in the Synergy H4 reader (BioTek) employing the fluorescence setting of the reader (ex: 680/30 nm; em: 620/40 nm).
Inhibition of IL-Production/Release in/from Jurkat T Cells Cells was Quantified as Follows:
Zero percent inhibition (MAX) was defined as the [IL-2] determined in supernatants derived from cells to which PHA & DMSO-only had been added instead of compound. Hundred percent inhibition (MIN) was defined as the [IL-2] determined in supernatants derived from cells that had been pre-treated with 1 μM CyclosporineA (Sigma) before the addition of 15 μg/ml PHA.
For routine IC50 determinations of compounds, 8 concentrations of a serial dilution (1:3.16) were tested, starting off from 10 μM.

[2] = biological target: T1, CRAC channel (endogenous SOC in HEK293 cells) (Homo sapiens, UniProt Q96D31); experiment: HEK Calcium Influx Assay (FLIPR); assay type: cell-based; settings: 10 μM compound, thapsigargin store depletion, Ca2+ signal 9.5-10 min post-administration, read-out: % inhib. [@ 10 μM] FLIPR
T1 construct: host or cells: HEK293
Procedure: Compounds of the invention have been tested for their effects on CRAC channels according to the following or similar procedures.
The effect of compounds of the invention on intracellular [Ca^2+] was tested in the HEK293 cell line (ECACC).
HEK293 cells were cultured in DMEM/F12/Glutamax (Gibco) containing 10% FCS (Gibco), and maintained at 37° C., 5% CO2. Cell were split twice a week [3·10^6 (Mon-Thu) and 1·10^6 (Thu-Mon) cells/50 ml medium in T-175 ZK culture flasks, respectively]. 24 hours pre-experiment, cells were seeded on 96 well plates (Poly-D-Lysine 96well Black/Clear Plate, BD Biocoat REF 356640) at a density of 40,000 cells/well in DMEM/F12 (Gibco) containing 10% FCS (Gibco), and maintained at 37° C., 5% CO2.
Prior to store-depletion, cell culture medium was removed and cells were loaded with the a Ca^2+-sensitive fluorescent dye comprised within the Calcium-4-assay kit (Molecular Devices) in nominally Ca^2+-free HBS buffer (140 mM NaCl, 4 mM KCl, 0.2 mM MgCl2, 11 mM D-glucose, and 10 mM HEPES, pH 7.4) according to manufacturer's instruction for 60 min at 37° C., 5% CO2.
Passive depletion of intracellular Ca^2+-stores was then triggered by employing the SERCA inhibitor thapsigargin (2 μM final) for 10 min in the dark (rt). To prevent immediate Ca^2+-entry via the activated Store-operated channels (SOCs), cells were maintained in Ca^2+-free HBS buffer comprising 100 μM EGTA during store-depletion.
Intracellular changes in [Ca^2+] were subsequently monitored with the FLIPR device (Molecular Devices). In brief, baseline imaging post-store depletion was allowed for 1 min before adjusting the extracellular buffer to 3 mM CaCl2. Increases in intracellular [Ca^2+] due to pre-activated SOC channels were monitored for 15 min until intracellular Ca^2+ levels had declined into a steady-state. Finally, compounds were administered and Ca^2+ signals were recorded for additional 10 min.
Inhibition of endogenous SOC in HEK293 cells was quantified employing the average Ca^2+ signal measured from 9.5-10 min post-administration. Zero percent inhibition (MAX) was defined as the Ca^2+ signal recorded from wells to which DMSO-only had been added instead of compound. Hundred percent inhibition (MIN) was defined as the signal obtained from wells in which cells haven't been treated with TG prior to Ca^2+ addition and to which DMSO-only had been added instead of compound. For routine IC50 determinations of compounds, 8 concentrations of a serial dilution (1:3.16) were tested, starting off from 10 μM. Reliable IC50's could consequently be determined only, if they were at least sub 2.5-3 μM.

T1 sequence (Q96D31 whole entry): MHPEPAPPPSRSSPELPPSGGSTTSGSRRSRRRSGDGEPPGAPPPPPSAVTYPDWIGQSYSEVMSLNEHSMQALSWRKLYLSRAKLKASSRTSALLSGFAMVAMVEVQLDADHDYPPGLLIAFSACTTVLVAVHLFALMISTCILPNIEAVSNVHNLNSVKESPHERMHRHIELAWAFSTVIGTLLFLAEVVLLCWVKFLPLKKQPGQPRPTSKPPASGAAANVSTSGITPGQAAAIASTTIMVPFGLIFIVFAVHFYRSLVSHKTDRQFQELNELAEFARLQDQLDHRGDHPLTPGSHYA

SMILES	IC50 [1] [µM]	inhibition at 10 µM [2] [%]
COc1ccc(-c2nccs2)cc1-c1c(N)c(C(=O)Nc2c(F)cccc2F)nn1C [Example 44, 4-Amino-N-(2,6-difluoro-phenyl)-5-(2-methoxy-5-thiazol-2-yl-phenyl)-1-methyl-1H-pyrazole-3-carboxylic acid amide]	1 to 5	< 50
COc1ccc(-c2ncco2)cc1-c1c(N)c(C(=O)Nc2c(F)cncc2F)nn1C [Example 45, 4-amino-N-(3,5-difluoropyridin-4-yl)-5-(2-methoxy-5-(oxazol-2-yl)phenyl)-1-methyl-1H-pyrazole-3-carboxamide]	1 to 5	< 50
COc1ccc(-c2ncco2)cc1-c1c(N)c(C(=O)Nc2c(F)cccc2F)nn1C [Example 46, 4-amino-N-(2,6-difluorophenyl)-5-(2-methoxy-5-(oxazol-2-yl)phenyl)-1-methyl-1H-pyrazole-3-carboxamide]	1 to 5	< 50
COc1ccc(-c2nccs2)cc1-c1c(N)c(C(=O)Nc2c(F)cncc2F)nn1C [Example 47, 4-amino-N-(3,5-difluoropyridin-4-yl)-5-(2-methoxy-5-(thiazol-2-yl)phenyl)-1-methyl-1H-pyrazole-3-carboxamide]	1 to 5	< 50
COc1ccc(C2=NOC(C)(C)C2=O)cc1-c1cc(C(=O)Nc2c(F)cccc2F)nn1C [Example 48]	0.5 to 1	< 50
Cn1nc(C(=O)Nc2c(F)cccc2F)c(N)c1-c1cc(-c2ncco2)ccc1OC(F)(F)F [Example 49, 4-amino-N-(2,6-difluorophenyl)-1-methyl-5-(5-(oxazol-2-yl)-2-(trifluoromethoxy)phenyl)-1H-pyrazole-3-carboxamide]	0.5 to 1	50 to 70
Cn1nc(C(=O)Nc2c(F)cncc2F)c(N)c1-c1cc(-c2ncco2)ccc1OC(F)(F)F [Example 50, 4-amino-N-(3,5-difluoropyridin-4-yl)-1-methyl-5-(5-(oxazol-2-yl)-2-(trifluoromethoxy)phenyl)-1H-pyrazole-3-carboxamide]	1 to 5	< 50
